Test results reported in patent publication US20210347758A1 (Tesaro, Inc., priority 2018, published 2021).
Converted amounts (≈) assume the structure as drawn. Where two headings read alike, the source gives them in different places.

Key:
[1] = physchem; details: for solubility at 24 h: 37 °C, thermodynamic from solid
Method: For each sample, 30 mg of the freebase was weighed into vials (in triplicate) and 1 mL of water or buffer was added. The following buffers (50 mM in each case) used were: • pH 1 25 mL KCl solution (1.49 g dissolved in 100 mL water) and 42.5 mL HCl solution (1.66 mL made up to 100 mL with water) were added together and made up to 100 mL with water; • pH 4.5 anhydrous sodium acetate (1.07 g) was dissolved in water (about 150 mL) before adding 5.9 mL acetic acid solution (11.6 mL glacial acetic acid made up to 100 mL with water). The resulting solution was made up to 500 mL with water; and • pH 6.8 25 mL of KH2PO4 solution (2.72 g dissolved in about 80 mL water and made up to 100 mL with water) and 11.2 mL of NaOH solution (800 mg of sodium hydroxide was dissolved and diluted to 100 mL with water) were added together and made up to 100 mL with water.
(§1) The resulting samples were shaken at 37° C. for 1 hour. […] All samples were then shaken at 37° C. for 23 hours. […] Any solids which were isolated by filtration were assessed by XRPD to determine whether the form of the material had changed.

[2] = solids shaken in water or pH 1 / 4.5 / 6.8 buffer at 37° C.
Method: as §1

[3] = up to 1 mL
Method: Between each addition, the mixture was checked for dissolution and, if no dissolution was apparent, the mixture was heated to about 50° C. and checked again. After 300 μL of solvent had been added, 100 μL aliquots were added sequentially. This procedure was continued until dissolution was observed or until 1 mL of solvent had been added. If no dissolution occurred, the solids were isolated by filtration and an XRPD pattern was collected. If dissolution occurred, the solvent was evaporated and an XRPD pattern was collected on any solid which remained.

[4] = for Hygroscopicity: GVS, double cycle
Method: Typically, approximately 10-20 mg of sample was placed into a mesh vapour sorption balance pan and loaded into an IGASorp Moisture Sorption Analyser balance by Hiden Analytical. The sample was subjected to a ramping profile from 40-90% relative humidity (RH) at 10% increments, maintaining the sample at each step until a stable weight had been achieved (98% step completion, minimum step length 30 minutes, maximum step length 60 minutes) at 25° C. After completion of the sorption cycle, the sample was dried using the same procedure to 0% RH, and finally taken back to the starting point of 40% RH. Two cycles were performed. The weight change during the sorption/desorption cycles were plotted, allowing for the hygroscopic nature of the sample to be determined.

[5] = system: poly (ADP-ribose) polymerase (“PARP”) proteins; details: selective for PARP-1 and PARP-2; Thorsell et al.; cited from earlier work
[6] = system: BRCA1- and BRCA2-deficient cell lines; details: in vitro; cited from earlier work
[7] = system: human cancers with deficiencies in BRCA1 and BRCA2 or with homologous recombination deficiency (HRD); details: mutated or wild-type BRCA1/2; cited from earlier work
[8] = pH 1 buffer (50 mM), shaken at 37° C. for 24 hours in total, average of triplicate
[9] = water, shaken at 37° C. for 24 hours in total, average of triplicate

SMILES | Solubility [1, 8] | solubility at 24 h ([1]; pH 4.5 sodium acetate/acetic acid buffer, pH 4.5, aqueous buffer, pH 4.5 buffer (50 mM), shaken at 37° C. for 24 hours in total, average of triplicate) | solubility at 24 h ([1]; pH 6.8 KH2PO4/NaOH buffer, pH 6.8, aqueous buffer, pH 6.8 buffer (50 mM), shaken at 37° C. for 24 hours in total, average of triplicate) | Solubility ([1]; water, Solubility in water, summary statement, conditions not stated) | Solubility [1, 9] | Solid form after filtration (XRPD) ([2]; listed as amorphous samples) | Dissolution in 2-propanol ([3]; 2-propanol, heated to about 50° C.) | Dissolution in ethanol ([3]; ethanol, with heating to about 40° C.) | Solubility ([1]; pH 4.5 buffer (50 mM), shaken at 37° C. for 24 hours in total, average of triplicate) | Solubility ([1]; pH 6.8 buffer (50 mM), shaken at 37° C. for 24 hours in total, average of triplicate) | Hygroscopicity ([4]; listed as Niraparib freebase Form I) | Hygroscopicity ([4]; listed as niraparib freebase Form I) | GVS mass increase ([4]; up to 90% RH, 25° C.) | Solid form after filtration (XRPD) ([2]; listed as crystalline samples) | PARP inhibition [5] | Inhibition of proliferation [6] | Tumor growth [7]
NC(=O)c1cccc2cn(-c3ccc([C@@H]4CCCNC4)cc3)nc12 [Amorphous Form, 2-{4-[(3S)-piperidin-3-yl]phenyl}-2H-indazole-7-carboxamide] | 11800 µg/mL (≈ 36.8 mM) | 13400 µg/mL (≈ 41.8 mM) | 600 µg/mL (≈ 1.87 mM) | ~1000 µg/mL (≈ 3.12 mM) | 800 µg/mL (≈ 2.5 mM) | a new crystalline form was obtained (Form V) | partially soluble | Complete dissolution | – | – | – | – | – | – | – | – | –
NC(=O)c1cccc2cn(-c3ccc([C@@H]4CCCNC4)cc3)nc12 [Crystalline Form I, 2-{4-[(3S)-piperidin-3-yl]phenyl}-2H-indazole-7-carboxamide] | 30900 µg/mL (≈ 96.4 mM) | – | – | – | <100 µg/mL | – | – | – | 11800 µg/mL (≈ 36.8 mM) | 700 µg/mL (≈ 2.18 mM) | non-hygroscopic | non-hydroscopic | about 0.7% | unchanged | – | – | –
NC(=O)c1cccc2cn(-c3ccc([C@@H]4CCCNC4)cc3)nc12 [Niraparib, 2-{4-[(3S)-piperidin-3-yl]phenyl}-2H-indazole-7-carboxamide] | – | – | – | – | – | – | – | – | – | – | – | – | – | – | potent inhibitor | inhibits the proliferation | decreases tumor growth
